Here are results for 7 compounds from ChEMBL document CHEMBL1201862, “PubChem BioAssay data set” (2004).

Calls of active or inactive are those of the source.

Assay [1] addresses T1, Sentrin-specific protease 8 (Homo sapiens, UniProt Q96LD8).
T1 sequence (Q96LD8 whole entry): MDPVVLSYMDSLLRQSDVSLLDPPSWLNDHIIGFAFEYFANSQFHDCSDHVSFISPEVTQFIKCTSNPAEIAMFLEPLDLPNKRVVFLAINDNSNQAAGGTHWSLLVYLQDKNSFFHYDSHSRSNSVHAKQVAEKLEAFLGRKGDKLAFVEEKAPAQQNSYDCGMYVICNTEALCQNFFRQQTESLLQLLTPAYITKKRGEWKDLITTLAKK
It counts as functional.

The nature of assay [2]: insulin promoter down-regulators in MIN6 cells, imaging, high-content screening, mouse beta cells (AID 1628). It counts as functional.
The subject of another assay is INS1. Kind of assay: beta cell apoptosis inhibitors, cytokine rescue, dose response, luminescence, retest (AID 449756).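 Note: cell death triggered by IL-1 beta plus TNF-alpha plus IFN-gamma mixture; protective hits raise ATP signal compared with cytokine alone wells.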 It counts as functional, cell-based. The following applies: Rattus norvegicus.
Assay [3] has as its target T2, Fatty acid synthase (Homo sapiens, UniProt P49327). Kind of assay: FAS thioesterase domain inhibitors, dose response, biochemical, endpoint fluorescence intensity, uHTS hits (AID 624327).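 Note: fluorescence from hydrolysis of an O-methyl fluorescein acyl ester substrate by the enzyme.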 It counts as functional.
Assay [4] concerns the target T3, Sentrin-specific protease 7 (Homo sapiens, UniProt Q9BQF6).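 Note: Luminescence-based dose-response confirmation of ultra-high-throughput screening hits, measuring inhibition of SENP7.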
T3 sequence (Q9BQF6 whole entry): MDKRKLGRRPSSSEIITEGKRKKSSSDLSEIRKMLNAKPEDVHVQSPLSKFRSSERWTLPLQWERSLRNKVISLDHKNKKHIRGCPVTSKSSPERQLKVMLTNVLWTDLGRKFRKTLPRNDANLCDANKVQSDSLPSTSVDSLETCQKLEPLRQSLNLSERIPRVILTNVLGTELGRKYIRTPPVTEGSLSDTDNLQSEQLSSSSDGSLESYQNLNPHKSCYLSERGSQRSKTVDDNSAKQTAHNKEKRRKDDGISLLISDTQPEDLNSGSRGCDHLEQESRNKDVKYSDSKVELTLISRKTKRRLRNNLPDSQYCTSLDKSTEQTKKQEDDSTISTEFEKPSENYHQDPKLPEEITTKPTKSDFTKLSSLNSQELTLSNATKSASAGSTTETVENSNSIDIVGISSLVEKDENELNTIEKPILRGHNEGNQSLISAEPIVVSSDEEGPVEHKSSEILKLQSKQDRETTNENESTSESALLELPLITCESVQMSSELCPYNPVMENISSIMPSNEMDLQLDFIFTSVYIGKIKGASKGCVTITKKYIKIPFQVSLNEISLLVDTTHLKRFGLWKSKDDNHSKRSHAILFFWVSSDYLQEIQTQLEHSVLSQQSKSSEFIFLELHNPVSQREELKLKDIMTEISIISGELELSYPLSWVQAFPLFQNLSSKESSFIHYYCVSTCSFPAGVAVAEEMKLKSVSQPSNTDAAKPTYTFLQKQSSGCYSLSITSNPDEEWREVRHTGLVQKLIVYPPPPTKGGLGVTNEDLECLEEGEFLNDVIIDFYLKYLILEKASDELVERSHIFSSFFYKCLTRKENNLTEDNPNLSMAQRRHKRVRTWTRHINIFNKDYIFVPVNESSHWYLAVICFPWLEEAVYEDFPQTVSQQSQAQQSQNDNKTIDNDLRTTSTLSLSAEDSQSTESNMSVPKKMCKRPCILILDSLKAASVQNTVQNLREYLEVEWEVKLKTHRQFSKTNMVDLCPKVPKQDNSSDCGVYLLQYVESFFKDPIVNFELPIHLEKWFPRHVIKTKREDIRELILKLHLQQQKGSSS
It counts as functional.

Assay [5] is described as follows: cytotoxicity in MIN6 insulinoma cells, dose response, cytotoxicity control, cell-based, mouse insulinoma (AID 2122).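 Note: confirmatory high-throughput counterscreen run to flag cytotoxic compounds; mouse MIN-6 beta cells carrying an insulin promoter eGFP reporter.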 It counts as functional.
In another assay the target is T4, Caspase-3 (Homo sapiens, UniProt P42574).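 Note: Dose-response selectivity test against caspase-3 for candidate inhibitors of sentrin-specific proteases (SENPs).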
T4 sequence (P42574 whole entry): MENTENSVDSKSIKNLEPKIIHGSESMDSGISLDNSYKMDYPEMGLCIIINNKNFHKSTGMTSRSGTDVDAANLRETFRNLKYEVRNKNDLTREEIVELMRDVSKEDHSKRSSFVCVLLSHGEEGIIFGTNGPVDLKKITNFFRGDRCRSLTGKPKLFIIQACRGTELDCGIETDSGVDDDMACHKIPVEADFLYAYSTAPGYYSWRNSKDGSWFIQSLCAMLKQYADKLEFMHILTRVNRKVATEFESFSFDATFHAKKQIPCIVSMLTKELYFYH
It counts as functional.

Assay [6] deals with T2, Fatty acid synthase. The experiment in a line: FAS thioesterase domain inhibitors, dose response, biochemical, kinetic fluorescence intensity (AID 624326).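 Note: rate of fluorescence rise from hydrolysis of a fluorogenic O-methyl fluorescein ester substrate.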 It counts as functional.
Assay [7] has as its target T5, Sentrin-specific protease 6 (Homo sapiens, UniProt Q9GZR1).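 Note: Luminescence-based dose-response confirmatory assay of SENP6 inhibition, following up an ultra-high-throughput screen.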
T5 sequence (Q9GZR1 whole entry): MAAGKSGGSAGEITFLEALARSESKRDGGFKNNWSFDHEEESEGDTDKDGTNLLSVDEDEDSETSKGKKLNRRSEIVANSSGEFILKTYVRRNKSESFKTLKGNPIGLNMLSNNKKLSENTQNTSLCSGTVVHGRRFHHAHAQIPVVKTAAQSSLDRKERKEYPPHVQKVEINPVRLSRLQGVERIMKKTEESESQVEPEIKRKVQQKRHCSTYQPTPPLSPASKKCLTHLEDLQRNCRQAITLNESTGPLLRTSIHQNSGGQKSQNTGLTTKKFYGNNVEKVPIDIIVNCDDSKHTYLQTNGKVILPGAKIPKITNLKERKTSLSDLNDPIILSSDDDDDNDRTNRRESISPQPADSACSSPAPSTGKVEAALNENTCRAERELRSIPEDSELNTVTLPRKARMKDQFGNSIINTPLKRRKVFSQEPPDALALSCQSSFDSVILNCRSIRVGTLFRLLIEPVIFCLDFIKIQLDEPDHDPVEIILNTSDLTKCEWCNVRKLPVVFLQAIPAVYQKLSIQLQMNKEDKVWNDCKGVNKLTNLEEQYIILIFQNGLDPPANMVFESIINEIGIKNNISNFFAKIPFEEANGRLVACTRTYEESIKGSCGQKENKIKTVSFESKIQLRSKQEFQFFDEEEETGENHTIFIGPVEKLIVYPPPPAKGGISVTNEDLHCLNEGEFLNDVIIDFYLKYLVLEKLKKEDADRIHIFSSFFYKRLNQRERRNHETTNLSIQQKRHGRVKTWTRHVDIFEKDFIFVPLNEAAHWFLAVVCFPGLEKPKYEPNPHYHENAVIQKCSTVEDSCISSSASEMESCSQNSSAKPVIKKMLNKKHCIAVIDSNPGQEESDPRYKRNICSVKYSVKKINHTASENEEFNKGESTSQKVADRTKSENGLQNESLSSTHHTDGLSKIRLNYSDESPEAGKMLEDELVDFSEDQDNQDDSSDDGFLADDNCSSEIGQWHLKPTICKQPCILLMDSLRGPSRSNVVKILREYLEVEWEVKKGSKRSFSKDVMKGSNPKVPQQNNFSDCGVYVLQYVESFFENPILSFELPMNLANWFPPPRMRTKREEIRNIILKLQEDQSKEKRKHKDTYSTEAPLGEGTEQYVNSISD
It counts as functional.

In assay [8] the target is Nuclear receptor subfamily 0 group B member 1 (Homo sapiens, UniProt P51843). Kind of assay: Luminescence-based cell-based high throughput dose response assay for inhibitors of the orphan nuclear receptor subfamily 0, group B, member 1 (DAX1; NR0B1). [Related pubchem assays (depositor defined):AID504766, AID504790]. It counts as functional.
For the next assay, the system named is HEK293. Kind of assay: cells. It counts as functional, cell-based. The following applies: Homo sapiens.
For the next assay, the system named is A-375. Kind of assay: MITF: Counter assay: A375 proliferation Measured in Cell-Based System Using Plate Reader - 2084-03_Inhibitor_Dose_DryPowder_Activity. [Related pubchem assays (depositor defined):AID488944]. It counts as functional. The following applies: Homo sapiens.
The nature of assay [9]: inhibitors of PGC1a acetylation in cells, dose response, cell-based, cherry-picked samples (AID 720514).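 Note: potency may reflect raised or lowered acetylation signal.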 It counts as functional.
Assay [10] has as its target T6, Microphthalmia-associated transcription factor (Homo sapiens, UniProt O75030).
T6 sequence (O75030 whole entry): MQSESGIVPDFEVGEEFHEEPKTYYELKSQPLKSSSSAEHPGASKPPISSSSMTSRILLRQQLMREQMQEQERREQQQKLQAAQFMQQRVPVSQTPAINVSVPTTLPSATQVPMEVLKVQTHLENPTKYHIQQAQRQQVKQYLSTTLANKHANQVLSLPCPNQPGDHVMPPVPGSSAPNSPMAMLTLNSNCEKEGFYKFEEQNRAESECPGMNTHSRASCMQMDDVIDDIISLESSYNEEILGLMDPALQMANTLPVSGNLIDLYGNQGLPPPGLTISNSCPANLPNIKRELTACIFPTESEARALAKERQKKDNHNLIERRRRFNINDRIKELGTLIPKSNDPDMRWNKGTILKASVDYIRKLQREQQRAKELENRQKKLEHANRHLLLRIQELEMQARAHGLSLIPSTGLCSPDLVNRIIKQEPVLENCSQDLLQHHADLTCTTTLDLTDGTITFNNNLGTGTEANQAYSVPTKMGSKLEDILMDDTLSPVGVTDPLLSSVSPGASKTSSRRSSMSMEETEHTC
Kind of assay: TRPM1 promoter luciferase signal decrease, dose response, MITF inhibitor project, cell-based, SK-MEL-5, cherry-picked, set 3 (AID 493073).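 Note: SK-MEL-5 melanoma cells with luciferase driven by the MITF target TRPM1 promoter.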 It counts as functional.

Assay [11] is described as follows: cytotoxicity in HEK-293T NF-kB-Luc cells, dose response, cytotoxicity control for B/T-cell NF-kB inhibitor project, cell-based, uHTS hits (AID 489019).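 Note: IC50 reflects cytotoxicity as loss of cell viability.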 It counts as functional.
The test system of another assay is Jurkat. Kind of assay: antigen receptor-induced NF-kB inhibitors, dose response, Jurkat, luciferase reporter, luminescence, B- and T-cell (AID 489004).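 Note: NF-kB luciferase reporter Jurkat cells stimulated with PMA plus ionomycin.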 It counts as functional, cell-based. The following applies: Homo sapiens.
The target in assay [12] is T7, Polyadenylate-binding protein 1 (Homo sapiens, UniProt P11940). Kind of assay: PABP1 MLLE–PAM2 binding inhibitor potency, dose response, biochemical, fluorescence polarization, FITC-PAM2 peptide (AID 602259). It counts as functional. The following applies: read-out: IC50_Mean.
A further assay concerns the target Nonstructural protein 1 (Influenza A virus, UniProt Q194T2). It counts as functional, Influenza A virus (A/California/07/2009(H1N1)).
Assay [13] addresses T7, Polyadenylate-binding protein 1. The experiment in a line: PABP1 MLLE–PAM2 interaction inhibitors, dose response, miRNA deadenylation inhibitor project, biochemical, fluorescence polarization, Cy5-PAM2 peptide, secondary (AID 602260). It counts as functional. The following applies: read-out: IC50_Mean.
The target of assay [14] is Glucose-6-phosphate 1-dehydrogenase (Homo sapiens, UniProt P11413). The experiment in a line: human G6PD enzyme inhibitors, dose response, selectivity assay for P. falciparum G6PD inhibitor project, biochemical, fluorescence (AID 504792). It counts as functional.
In the next assay the test system is Vero. Kind of assay: Vero cell cytotoxicity, cytotoxicity control for flavivirus capping enzyme inhibitors (AID 588742). It counts as functional. The following applies: Chlorocebus sabaeus.
In assay [15] the target is T1, Sentrin-specific protease 8. It counts as functional. This is another data set of the same source.
Assay [16] has the same target. It counts as functional. The source holds these as a separate data set.
The next assay has as its system Candida albicans. The experiment in a line: reversal of fluconazole resistance in C. albicans, dose response, CaCi-2 strain, Alamar Blue, dry powder, set 3 (AID 488907). It counts as functional, organism-based.

Sequence of Nuclear receptor subfamily 0 group B member 1 (P51843 whole entry): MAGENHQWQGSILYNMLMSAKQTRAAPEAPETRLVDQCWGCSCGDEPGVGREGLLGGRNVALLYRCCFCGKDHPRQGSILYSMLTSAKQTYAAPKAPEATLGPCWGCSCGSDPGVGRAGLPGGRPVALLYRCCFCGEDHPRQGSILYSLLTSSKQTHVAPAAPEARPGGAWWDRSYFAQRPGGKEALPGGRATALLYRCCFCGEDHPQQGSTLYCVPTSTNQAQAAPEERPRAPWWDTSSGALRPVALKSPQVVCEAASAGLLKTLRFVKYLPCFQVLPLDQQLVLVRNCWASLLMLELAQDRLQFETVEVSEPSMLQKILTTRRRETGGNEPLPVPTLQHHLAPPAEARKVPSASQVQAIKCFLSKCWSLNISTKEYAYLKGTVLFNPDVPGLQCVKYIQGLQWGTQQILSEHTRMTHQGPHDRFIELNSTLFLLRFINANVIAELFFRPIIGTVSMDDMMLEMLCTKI
T7 sequence (P11940 whole entry): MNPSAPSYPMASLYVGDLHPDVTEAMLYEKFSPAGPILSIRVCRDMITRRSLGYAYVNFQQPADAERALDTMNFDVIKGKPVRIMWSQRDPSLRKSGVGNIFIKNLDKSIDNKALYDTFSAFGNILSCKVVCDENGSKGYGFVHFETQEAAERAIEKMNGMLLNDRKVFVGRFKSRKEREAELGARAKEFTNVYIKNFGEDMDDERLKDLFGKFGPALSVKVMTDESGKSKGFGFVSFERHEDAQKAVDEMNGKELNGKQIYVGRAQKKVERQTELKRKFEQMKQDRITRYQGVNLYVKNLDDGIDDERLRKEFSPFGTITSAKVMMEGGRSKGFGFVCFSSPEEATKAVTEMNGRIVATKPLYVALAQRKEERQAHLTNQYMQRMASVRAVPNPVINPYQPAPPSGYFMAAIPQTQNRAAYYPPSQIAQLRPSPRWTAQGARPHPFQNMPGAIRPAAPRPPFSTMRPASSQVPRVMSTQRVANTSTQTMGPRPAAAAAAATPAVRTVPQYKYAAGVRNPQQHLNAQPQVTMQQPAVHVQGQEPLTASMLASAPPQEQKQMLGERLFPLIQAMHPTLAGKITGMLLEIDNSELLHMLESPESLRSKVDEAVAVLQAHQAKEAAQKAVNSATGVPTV
T2 sequence (P49327 whole entry, the tested form may be a part): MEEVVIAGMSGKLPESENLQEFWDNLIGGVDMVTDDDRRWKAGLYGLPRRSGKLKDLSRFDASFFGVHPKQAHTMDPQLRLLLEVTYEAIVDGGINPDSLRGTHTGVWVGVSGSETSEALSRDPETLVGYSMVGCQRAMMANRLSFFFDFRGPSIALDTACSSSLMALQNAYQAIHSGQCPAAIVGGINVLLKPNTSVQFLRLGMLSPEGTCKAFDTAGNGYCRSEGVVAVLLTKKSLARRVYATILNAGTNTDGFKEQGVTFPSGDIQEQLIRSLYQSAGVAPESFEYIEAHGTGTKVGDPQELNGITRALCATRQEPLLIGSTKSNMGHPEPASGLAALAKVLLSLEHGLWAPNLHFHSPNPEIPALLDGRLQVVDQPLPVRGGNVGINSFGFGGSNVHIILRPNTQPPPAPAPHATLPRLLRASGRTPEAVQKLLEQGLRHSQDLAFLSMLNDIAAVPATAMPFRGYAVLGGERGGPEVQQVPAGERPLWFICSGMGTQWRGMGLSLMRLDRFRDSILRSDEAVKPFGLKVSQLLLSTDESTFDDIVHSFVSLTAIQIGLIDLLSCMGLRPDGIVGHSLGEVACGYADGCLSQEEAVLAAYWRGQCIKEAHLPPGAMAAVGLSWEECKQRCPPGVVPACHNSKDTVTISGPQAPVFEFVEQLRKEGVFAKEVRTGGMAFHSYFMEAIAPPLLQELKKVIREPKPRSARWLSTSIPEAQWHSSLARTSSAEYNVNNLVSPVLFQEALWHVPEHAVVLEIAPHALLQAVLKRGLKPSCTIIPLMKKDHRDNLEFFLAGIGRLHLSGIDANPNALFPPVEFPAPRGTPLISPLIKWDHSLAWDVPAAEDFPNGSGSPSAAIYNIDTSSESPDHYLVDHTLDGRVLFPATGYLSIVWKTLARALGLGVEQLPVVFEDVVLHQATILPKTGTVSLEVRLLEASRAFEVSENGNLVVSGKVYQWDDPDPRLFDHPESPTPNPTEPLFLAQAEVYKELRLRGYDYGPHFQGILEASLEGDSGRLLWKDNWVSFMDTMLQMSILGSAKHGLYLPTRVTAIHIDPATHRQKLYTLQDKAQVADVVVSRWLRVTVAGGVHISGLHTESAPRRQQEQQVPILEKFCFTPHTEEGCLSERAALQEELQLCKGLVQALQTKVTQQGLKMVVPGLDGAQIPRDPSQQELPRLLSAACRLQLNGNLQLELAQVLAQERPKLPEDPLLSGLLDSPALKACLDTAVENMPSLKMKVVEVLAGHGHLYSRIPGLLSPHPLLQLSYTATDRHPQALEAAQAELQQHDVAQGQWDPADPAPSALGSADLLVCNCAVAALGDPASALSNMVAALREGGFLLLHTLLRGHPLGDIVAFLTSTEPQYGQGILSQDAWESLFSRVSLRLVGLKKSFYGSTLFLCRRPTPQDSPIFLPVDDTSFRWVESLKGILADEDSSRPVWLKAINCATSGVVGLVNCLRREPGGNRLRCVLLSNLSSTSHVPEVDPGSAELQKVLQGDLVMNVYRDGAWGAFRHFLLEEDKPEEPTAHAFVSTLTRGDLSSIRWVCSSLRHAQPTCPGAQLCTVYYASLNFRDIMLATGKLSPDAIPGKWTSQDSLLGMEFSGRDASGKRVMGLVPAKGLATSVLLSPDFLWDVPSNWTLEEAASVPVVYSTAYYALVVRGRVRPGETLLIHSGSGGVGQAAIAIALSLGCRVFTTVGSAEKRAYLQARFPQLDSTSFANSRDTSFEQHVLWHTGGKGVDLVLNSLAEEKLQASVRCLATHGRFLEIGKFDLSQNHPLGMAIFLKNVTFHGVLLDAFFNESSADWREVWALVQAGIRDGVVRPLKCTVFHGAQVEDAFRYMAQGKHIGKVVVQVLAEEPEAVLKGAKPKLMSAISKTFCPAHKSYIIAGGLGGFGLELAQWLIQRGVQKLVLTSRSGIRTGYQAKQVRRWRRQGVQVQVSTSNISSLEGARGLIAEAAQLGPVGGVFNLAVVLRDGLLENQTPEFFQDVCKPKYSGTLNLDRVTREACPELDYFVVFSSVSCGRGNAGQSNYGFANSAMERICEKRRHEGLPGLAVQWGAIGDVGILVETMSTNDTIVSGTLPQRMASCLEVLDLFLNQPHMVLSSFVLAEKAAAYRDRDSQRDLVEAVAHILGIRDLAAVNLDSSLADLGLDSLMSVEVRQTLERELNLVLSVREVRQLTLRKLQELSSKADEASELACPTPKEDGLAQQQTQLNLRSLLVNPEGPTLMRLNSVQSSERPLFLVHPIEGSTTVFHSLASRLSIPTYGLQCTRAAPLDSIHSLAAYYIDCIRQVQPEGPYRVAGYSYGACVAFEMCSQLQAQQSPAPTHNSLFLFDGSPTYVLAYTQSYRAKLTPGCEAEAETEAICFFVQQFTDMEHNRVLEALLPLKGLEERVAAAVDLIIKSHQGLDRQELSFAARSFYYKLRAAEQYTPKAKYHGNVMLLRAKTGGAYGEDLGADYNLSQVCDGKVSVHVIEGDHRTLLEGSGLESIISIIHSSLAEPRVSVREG
Sequence of Nonstructural protein 1 (Q194T2 whole entry): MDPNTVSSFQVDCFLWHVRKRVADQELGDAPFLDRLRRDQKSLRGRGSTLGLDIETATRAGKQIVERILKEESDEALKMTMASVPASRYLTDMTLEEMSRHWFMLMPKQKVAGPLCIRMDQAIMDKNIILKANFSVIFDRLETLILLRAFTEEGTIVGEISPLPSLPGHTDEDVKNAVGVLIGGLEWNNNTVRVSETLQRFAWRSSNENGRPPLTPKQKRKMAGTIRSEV
Sequence of Glucose-6-phosphate 1-dehydrogenase (P11413 whole entry): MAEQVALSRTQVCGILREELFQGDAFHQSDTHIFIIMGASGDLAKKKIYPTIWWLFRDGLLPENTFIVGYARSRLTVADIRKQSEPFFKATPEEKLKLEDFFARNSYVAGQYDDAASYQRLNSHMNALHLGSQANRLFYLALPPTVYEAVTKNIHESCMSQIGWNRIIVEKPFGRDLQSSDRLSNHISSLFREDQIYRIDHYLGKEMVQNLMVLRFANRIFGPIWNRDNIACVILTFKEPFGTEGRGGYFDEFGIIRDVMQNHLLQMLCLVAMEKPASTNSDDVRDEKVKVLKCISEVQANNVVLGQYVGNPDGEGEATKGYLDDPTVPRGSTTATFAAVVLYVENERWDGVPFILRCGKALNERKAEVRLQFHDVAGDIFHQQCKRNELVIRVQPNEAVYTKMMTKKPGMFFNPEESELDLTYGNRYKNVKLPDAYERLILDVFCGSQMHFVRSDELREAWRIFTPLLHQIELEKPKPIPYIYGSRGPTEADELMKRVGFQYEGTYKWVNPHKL

`O=C(Nc1ccc(OC(F)(F)F)cc1)Nc1cccc([N+](=O)[O-])c1`: the IC50 in [1] was > 100 µM (inactive); in assay [2], 1.42 µM (active); at Fatty acid synthase [3] it was 6.74 µM (active); in assay [4], 8.57 µM (active); in assay [5] it was 1.27 µM (active); at Caspase-3 it was 89.9 µM (active). Moreover, the IC50 at Fatty acid synthase [6] was 6.14 µM (active); in [7] it was > 100 µM (inactive). The AC50 in the assay on INS1 is 2.8 µM (active).

Consider `CCCCN(C(C)=O)C1CC(=O)N(c2ccc(OCCC)cc2)C1=O` (configuration not stated), for which the IC50 (in assay [8]; with HEK293) was > 67.5 µM (inactive) each time.

Take `Cc1cccc(NC(=O)CNC(=O)Cn2ncc(Cl)c(Cl)c2=O)c1C`: the AC50 was 20.5 µM (active) in the assay with A-375, 6.82 µM (active) in [9] and 13.4 µM (active) in assay [10].

For the compound `COc1ccc(/C=C2\SC(=O)N(CCCC(=O)Nc3cc(Cl)ccc3C(=O)O)C2=O)cc1`, the IC50 was > 80 µM (inactive) in assay [11] and < 0.16 µM (active) in the assay on Jurkat. Also, in assay [10], the AC50 was 0.528 µM (active).

As to `Cc1cnc(C=NNC(N)=S)c2cccc(N)c12`, the IC50 in [12] was > 66 µM (inactive); at Nonstructural protein 1, 2.39 µM (active); in assay [13], > 66 µM (inactive); in assay [14] it was 32.1 µM (inactive); in assay [15] it was 8.74 µM (active); in assay [16] it was 2.83 µM (active). The CC50 in the assay on Vero was 4.93 µM (active).

For `O=C(c1ccc(Cl)cc1)N1CCN(c2ncccc2C(F)(F)F)CC1`, the AC50 in the assay on Candida albicans was 0.217 µM (active).

As to `N#C/C(=N/Nc1ccc([N+](=O)[O-])cc1)C(=N)N1CCCCC1`, the IC50 (in assay [8]; with HEK293) was > 67.5 µM (inactive) throughout.
